Data reported in patent publication US9056874B2, “Complement pathway modulators and uses thereof” (NOVARTIS AG, priority 2012, dated 2015).

These compounds were tested against factor B (Homo sapiens, UniProt P00751) (assay: factor B inhibition assay of Biological Example 1). Conditions: IC50 (nM), assay of Biological Example 1 (Table 1).
Assay type: biochemical
Set-up: CVF-Bb complex prepared from purified cobra venom factor (1 μM), recombinant human complement factor B; made in house; host or cells: drosophila cells (factor B); E. coli (factor D used to form the complex)

Sequence of factor B (P00751 260-764 limits assumed): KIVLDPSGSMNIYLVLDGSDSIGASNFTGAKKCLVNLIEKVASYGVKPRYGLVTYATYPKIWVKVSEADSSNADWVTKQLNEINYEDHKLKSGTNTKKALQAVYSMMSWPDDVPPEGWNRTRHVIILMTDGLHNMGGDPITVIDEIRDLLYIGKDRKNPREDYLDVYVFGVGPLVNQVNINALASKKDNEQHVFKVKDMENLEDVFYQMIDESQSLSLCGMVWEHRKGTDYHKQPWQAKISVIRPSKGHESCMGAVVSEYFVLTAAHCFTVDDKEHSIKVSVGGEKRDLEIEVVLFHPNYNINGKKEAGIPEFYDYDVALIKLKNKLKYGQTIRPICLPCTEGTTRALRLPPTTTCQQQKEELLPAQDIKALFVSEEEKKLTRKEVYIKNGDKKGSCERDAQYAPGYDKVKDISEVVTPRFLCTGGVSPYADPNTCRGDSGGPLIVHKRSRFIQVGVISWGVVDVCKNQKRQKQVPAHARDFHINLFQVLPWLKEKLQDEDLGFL
Sequence of factor B (Q91132 23-649 partner limits assumed): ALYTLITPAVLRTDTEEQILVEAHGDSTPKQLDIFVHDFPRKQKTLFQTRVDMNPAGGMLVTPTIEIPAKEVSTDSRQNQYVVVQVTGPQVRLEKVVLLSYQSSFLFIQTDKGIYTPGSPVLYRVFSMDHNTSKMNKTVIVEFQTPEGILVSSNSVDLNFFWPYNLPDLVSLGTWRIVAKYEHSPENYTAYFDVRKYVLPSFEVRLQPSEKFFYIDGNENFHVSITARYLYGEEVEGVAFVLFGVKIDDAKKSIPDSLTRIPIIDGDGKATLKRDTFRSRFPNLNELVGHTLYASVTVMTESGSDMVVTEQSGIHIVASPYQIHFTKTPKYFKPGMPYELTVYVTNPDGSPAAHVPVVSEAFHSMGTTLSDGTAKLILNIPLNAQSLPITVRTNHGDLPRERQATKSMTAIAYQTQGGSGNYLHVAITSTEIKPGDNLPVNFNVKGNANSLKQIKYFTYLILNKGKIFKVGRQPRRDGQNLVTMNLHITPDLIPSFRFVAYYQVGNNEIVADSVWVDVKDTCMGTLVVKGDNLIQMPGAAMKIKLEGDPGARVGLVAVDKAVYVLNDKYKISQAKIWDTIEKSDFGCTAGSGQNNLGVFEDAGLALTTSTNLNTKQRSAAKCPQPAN
Sequence of factor B (Q91132 733-984 partner limits assumed): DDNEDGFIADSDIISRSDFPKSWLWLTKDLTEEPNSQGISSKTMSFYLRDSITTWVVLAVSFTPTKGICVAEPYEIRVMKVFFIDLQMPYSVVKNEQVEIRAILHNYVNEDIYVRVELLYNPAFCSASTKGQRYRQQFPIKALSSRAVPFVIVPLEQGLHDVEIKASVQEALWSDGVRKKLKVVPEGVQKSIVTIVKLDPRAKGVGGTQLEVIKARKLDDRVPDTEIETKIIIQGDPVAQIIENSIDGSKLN
Sequence of factor B (Q91132 1264-1642 partner limits assumed): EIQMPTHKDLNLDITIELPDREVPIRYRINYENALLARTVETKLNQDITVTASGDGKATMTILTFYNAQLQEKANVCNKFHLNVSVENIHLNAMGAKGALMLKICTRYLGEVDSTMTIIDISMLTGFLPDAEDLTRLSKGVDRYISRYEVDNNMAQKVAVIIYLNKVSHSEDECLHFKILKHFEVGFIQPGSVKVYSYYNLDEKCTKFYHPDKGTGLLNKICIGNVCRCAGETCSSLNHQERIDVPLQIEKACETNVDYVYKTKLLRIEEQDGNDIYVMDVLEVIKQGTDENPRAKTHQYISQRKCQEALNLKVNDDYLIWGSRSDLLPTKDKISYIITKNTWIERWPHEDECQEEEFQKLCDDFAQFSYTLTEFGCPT

Row | Compound | IC50 [nM]
1 | Cc1cc(C2CC2)c(C(O)c2nc3cc(C#N)c(F)cc3[nH]2)c2cc[nH]c12 (centres unmarked) [Example 67-H] | 1930
2 | CCOc1cc(C)c2[nH]ccc2c1C(C)(O)c1nc2cc(C#N)ccc2[nH]1 (single isomer, unassigned; (-)) [26-D b) (−), (−)-2-(1-(5-ethoxy-7-methyl-1H-indol-4-yl)-1-hydroxyethyl)-1H-benzo[d]imidazole-5-carbonitrile] | 440
3 | CCOc1cc(C)c2[nH]ccc2c1C(O)(c1nc2cc(C#N)ccc2[nH]1)C(F)(F)F (single isomer, unassigned) [33-C b) (tr = 5.1 min), 2-(1-(5-ethoxy-7-methyl-1H-indol-4-yl)-2,2,2-trifluoro-1-hydroxyethyl)-1H-benzo[d]imidazole-5-carbonitrile] | 5380
4 | Cc1cc(C2CC2)c(C(C)(N)c2nc3cc(C#N)ccc3[nH]2)c2cc[nH]c12 (single isomer, unassigned; (-)) [102-D b) (−), (−)-2-(1-amino-1-(5-cyclopropyl-7-methyl-1H-indol-4-yl)ethyl)-1H-benzo[d]imidazole-5-carbonitrile] | 8
5 | COc1cc(C)c2[nH]ccc2c1Cc1nc2ccc(C#N)cc2o1 [Example 20-H] | 4370
6 | Cc1cc(OC(C)C)c(C(O)c2nc3cc(C#N)ccc3[nH]2)c2cc[nH]c12 (single isomer, unassigned; (+)) [24-D b) (+), (+)-2-(hydroxy(5-isopropoxy-7-methyl-1H-indol-4-yl)methyl)-1H-benzo[d]imidazole-5-carbonitrile] | 1980
7 | COC(C)(c1nc2cc(C#N)ccc2[nH]1)c1c(OC(C)C)cc(C)c2[nH]ccc12 (centres unmarked) [Example 27-C] | 90
8 | Cc1cc(C)c2[nH]cc3c2c1C(O)(c1nc2cc(C#N)ccc2[nH]1)CC3 (single isomer, unassigned) [93-F b) (tr = 7.2 min), (+) or (−)-2-(5-hydroxy-6,8-dimethyl-1,3,4,5-tetrahydrobenzo[cd]indol-5-yl)-1H-benzo[d]imidazole-5-carbonitrile] | 33800
9 | COc1cc(C)c2[nH]ccc2c1C(OC)(c1nc2cc(C#N)ccc2[nH]1)C1CC1 (centres unmarked) [Example 27-D] | 20
10 | Cc1cc(C(C)C)c(C(O)(c2nc3cc(C#N)ccc3[nH]2)C(F)(F)F)c2cc[nH]c12 (single isomer, unassigned; (-)) [80-F b) (−), (−)-2-(2,2,2-trifluoro-1-hydroxy-1-(5-isopropyl-7-methyl-1H-indol-4-yl)ethyl)-1H-benzo[d]imidazole-5-carbonitrile] | 20
11 | Cc1cc(S(C)(=O)=O)c(C(N)c2nc3cc(C#N)ccc3[nH]2)c2cc[nH]c12 (single isomer, unassigned) [18-D (−), 2-(amino(7-methyl-5-(methylsulfonyl)-1H-indol-4-yl)methyl)-1H-benzo[d]imidazole-5-carbonitrile] | 150
12 | CNC(c1nc2cc(C#N)ccc2[nH]1)c1c(OC(F)F)cc(C)c2[nH]ccc12 (racemic) [Example 4, (±)-2-((5-(Difluoromethoxy)-7-methyl-1H-indol-4-yl)(methylamino)methyl)-1H-benzo[d]imidazole-5-carbonitrile] | 570
13 | Cc1cc(S(C)(=O)=O)c(C(O)(c2nc3cc(C#N)ccc3[nH]2)C(F)(F)F)c2cc[nH]c12 (single isomer, unassigned; (+)) [14-D b) (+), (+)-2-(2,2,2-trifluoro-1-hydroxy-1-(7-methyl-5-(methylsulfonyl)-1H-indol-4-yl)ethyl)-1H-benzo[d]imidazole-5-carbonitrile] | 8410
14 | Cc1cc(C(C)C)c(C(N)c2nc3cc(C#N)ccc3[nH]2)c2cc[nH]c12 (single isomer, unassigned) [97 b) (tr = 10.5 min), (+) or (−)-2-(amino(5-isopropyl-7-methyl-1H-indol-4-yl)methyl)-1H-benzo[d]imidazole-5-carbonitrile] | 3810
15 | CNC(C)(c1nc2cc(C#N)ccc2[nH]1)c1c(C)cc(C)c2[nH]ccc12 (racemic) [Example 103-E, (±)-2-(1-(5,7-Dimethyl-1H-indol-4-yl)-1-(methylamino)ethyl)-1H-benzo[d]imidazole-5-carbonitrile] | 50
16 | COc1cc(C)c2[nH]ccc2c1C(OC)c1nc2cc(C#N)ccc2[nH]1 (racemic) [30-B b) (+), (+)-2-(methoxy(5-methoxy-7-methyl-1H-indol-4-yl)methyl)-1H-benzo[d]imidazole-5-carbonitrile] | 220
17 | CCc1cc(C)c2[nH]ccc2c1C(O)(c1nc2cc(C#N)ccc2[nH]1)C(F)(F)F (single isomer, unassigned; (-)) [80-C b) (−), (−)-2-(1-(5-ethyl-7-methyl-1H-indol-4-yl)-2,2,2-trifluoro-1-hydroxyethyl)-1H-benzo[d]imidazole-5-carbonitrile] | 10
18 | COc1cc(C)c2[nH]ccc2c1C(N)(c1nc2cc(C#N)ccc2[nH]1)C(F)(F)F (racemic) [36-E b) (+), (+)-2-(1-amino-2,2,2-trifluoro-1-(5-methoxy-7-methyl-1H-indol-4-yl)ethyl)-1H-benzo[d]imidazole-5-carbonitrile] | 50
19 | Cc1cc(OC(C)C)c(C(N)(c2nc3cc(C#N)ccc3[nH]2)C(F)(F)F)c2cc[nH]c12 (racemic) [Example 37, (±)-2-(1-Amino-2,2,2-trifluoro-1-(5-isopropoxy-7-methyl-1H-indol-4-yl)ethyl)-1H-benzo[d]imidazole-5-carbonitrile] | 30
20 | Cc1cc(C)c2[nH]ccc2c1C(CO)c1nc2cc(C#N)ccc2[nH]1 (racemic) [Example 108-E, (±)-2-(1-(5,7-Dimethyl-1H-indol-4-yl)-2-hydroxyethyl)-1H-benzo[d]imidazole-5-carbonitrile] | 80
21 | CCC(O)(c1nc2cc(C#N)ccc2[nH]1)c1c(OC(C)C)cc(C)c2[nH]ccc12 (single isomer, unassigned; (-)) [26-F b) (−), (−)-2-(1-hydroxy-1-(5-isopropoxy-7-methyl-1H-indol-4-yl)propyl)-1H-benzo[d]imidazole-5-carbonitrile] | 380
22 | Cc1cc(C2CC2)c(C(C)(O)c2nc3cc(C#N)ccc3[nH]2)c2cc[nH]c12 (single isomer, unassigned; (+)) [79-C b) (+), (+)-2-(1-(5-cyclopropyl-7-methyl-1H-indol-4-yl)-1-hydroxyethyl)-1H-benzo[d]imidazole-5-carbonitrile] | 8
23 | CC(=O)NCc1cc(C)c2[nH]ccc2c1Cc1nc2cc(C#N)ccc2[nH]1 [Example 61, N-((4-((5-cyano-1H-benzo[d]imidazol-2-yl)methyl)-7-methyl-1H-indol-5-yl)methyl)acetamide] | 6620
24 | Cc1cc(C)c2[nH]ccc2c1C(O)c1nc2cc(C#N)ccc2[nH]1 (single isomer, unassigned; (-)) [64-C b) (−), (−)-2-((5,7-dimethyl-1H-indol-4-yl)(hydroxy)methyl)benzo[d]imidazole-5-carbonitrile] | 60
25 | CCOc1cc(C)c2[nH]ccc2c1C(C)(O)c1nc2cc(C#N)ccc2[nH]1 (single isomer, unassigned; (+)) [26-D b) (+), (+)-2-(1-(5-ethoxy-7-methyl-1H-indol-4-yl)-1-hydroxyethyl)-1H-benzo[d]imidazole-5-carbonitrile] | 360
26 | Cc1cc(C)c2[nH]ccc2c1C(C)(N)c1nc2cc(C#N)ccc2[nH]1 (racemic) [101-E b) (+), (+)-2-(1-amino-1-(5,7-dimethyl-1H-indol-4-yl)ethyl)benzo[d]imidazole-5-carbonitrile] | 80
